In patent US9751875B2, “Quinine compounds, and optical isomers, preparation method and medical use thereof” (BEIJING FSWELCOME TECHNOLOGY DEVELOPMENT CO., LTD., priority 2013, dated 2017):
Where two headings read alike, the source gives them in different places.

Legend:
[1] = system: tracheal smooth muscle from guinea pigs (contraction induced by 3 × 10^−6 mol/L of CCh); assay: Antagonism in vitro of contraction of isolated tracheal smooth muscle from guinea pigs induced by carbachol (CCh); format: cell-based, guinea pig; conditions: cumulative dosing
From the text: Preparation of the Isolated Tracheal Smooth Muscle Specimen from a Guinea Pig:
After a guinea pig was narcotized with urethane, the trachea between the throat and carina of the guinea pig was taken out rapidly, and placed in the Krebs-Henseleit (K-H) solution (composition (g/L): NaCl 6.92, KCl 0.35, CaCl2 0.28, KH2PO4 0.16, MgSO4.7H2O 0.4568, NaHCO3 2.1, Glucose 2.0) with a mixture gas of 5% CO2 and 95% O2 purged. After loose connective tissues and fats around the trachea were separated, the trachea was cut into trachea pieces having a width of about 3 mm and a length of 20 mm by a surgical scissor, with both ends of the trachea piece ligated with 4˜0 silk suture, and then placed into a thermostatic bath containing 5 ml of K—H solution (pH 7.4) at 37° C., with the mixture gas of 5% CO2 and 95% O2 continuously purged. A muscle tension transducer was connected to the upper end so as to apply 1.0 g of resting tension to the specimen, the change of the tension was recorded, the culture solution was replaced every 20 min, and the test was started after being balanced for 60 min.
Administration method: After the trachea piece was stabilized, 3×10^−6 mol/L of CCh was added into a bath, and after the contractile tension of the trachea piece reached a peak level, the example compounds, ipratropium bromide and tiotropium bromide were added into a Magnus bath by a cumulative dosing regimen with a dosage of 10^−9˜10^−5 mol, respectively, and the diastolic condition of the trachea piece was observed: if no response occurred (below the threshold concentration), a next dosage was continued to be added in sequence; if response occurred, after it reached a diastolic plateau, a next dosage was further added. The above operation was repeated until the contractile curve reached the minimum value. Finally, 10^−6 mol/L of isoprenaline was added so that the maximum relaxation would be reached and the curve was recorded.
Statistical approach: The result was expressed as mean ±standard deviation, and counted by Sigma Stat statistical package. The data was analyzed by using variance analysis, the comparison among means of a plurality of specimen was performed by using Student-Newman-Keuls(SNK) test; statistical significant level α=0.05 (bilateral).
Compounds shown in Table 5 were further prepared according to the present invention, and their IC50 […] of resistance to the contraction of tracheal smooth muscle from guinea pigs induced by a concentration of 3×10^−6 mol/L of CCh was determined.

[2] = system: tracheal smooth muscle from guinea pigs (contraction induced by 3 × 10^−6 mol/L of CCh); assay: as above; format: cell-based, guinea pig
[3] = system: m1, m2 and m3 subtypes of M receptor; assay: Competitive [3H]-QNB binding on membranes of CHO cells transfected with m1, m2, m3; selectivity on subtypes of M receptor; conditions: ratio of Ki, n = 6
[4] = system: bronchus in guinea pigs (contractile response induced by Mch); assay: Antagonism of contractile response of bronchus in guinea pigs induced by methacholine (Mch); airway resistance and pulmonary dynamic compliance; format: in vivo, guinea pig; conditions: Mch 10 μg/kg iv after 30 min; for Cdyn(ml/cm H2O) / Raw (cm H2O/ml/s): Mean ± S.E.M
From the text: Determination of tidal volume, airway flow rate, and transpulmonary pressure: 1.5 g/kg of urethane was intraperitoneally injected to narcotize the guinea pig. The guinea pig was fixed supinely and treated with tracheal intubation, and the external jugular vein was separated and an indwelling needle was inserted; the guinea pig was enclosed into a body plethysmograph, a blunt needle for intubation into thoracic cavity was inserted between ribs 4˜5 of the prothorax of the guinea pig, and the intrathoracic pressure could be measured (with a negative value of a water column of a water manometer and a fluctuation with the breath of the guinea pig as marks). After stabilization, the values of the tidal volume, airway flow rate and transpulmonary pressure of the guinea pig prior to administration of Mch were recorded by a MedLab biological signal collection and processing system as base values. 10 μg/kg body weight of Mch was intravenously injected. The changes of the airway flow rate, tidal volume and transpulmonary pressure of the guinea pig within 5 minutes were observed. Calculation of Raw and Cdyn: the changes of the increased percentage of Raw value and the decreased percentage of Cdyn after […] of Mch were calculated.
Calculation formulas of Raw and Cdyn were respectively: […]
Dose-effect relationship: For each of the example compounds, 27 guinea pigs were randomly divided into […]: a solvent control group with […], a group with 1 μg/kg of the example compounds 4, 10, 14, and 26, a group with 3 μg/kg of the example compounds 4, 10, 14, and 26 and a group with 10 μg/kg of the example compounds 4, 10, 14, and 26; after 30 min from the dropping of the above concentration of drugs in the airway, 10 μg/kg body weight of Mch was intravenously injected for excitation, and airway resistance (Raw) and pulmonary dynamic compliance (Cdyn) within 5 min were determined. […]

[5] = read-out: IC50 (μM), antagonism in vitro against the contraction of the tracheal smooth muscle induced by CCh, 3 × 10^−6 mol/L of CCh
[6] = Cavia porcellus, read-out: IC50 (μM), antagonism in vitro against the contraction of the tracheal smooth muscle induced by CCh, 3 × 10^−6 mol/L of CCh

Compound	IC50 [1, 5]	Onset time [2]	Time for eliminating inhibition effect (min) [2]	Selectivity m1/m2, Mx/My = Ki(y)/Ki(x) [3]	Selectivity m1/m3, Mx/My = Ki(y)/Ki(x) [3]	Selectivity m2/m3, Mx/My = Ki(y)/Ki(x) [3]	inhibition ratio against the decrease of pulmonary dynamic compliance ([4]; 1 μg/kg dropped in the airway)	inhibition ratio against the increase of airway resistance ([4]; 1 μg/kg dropped in the airway)	Cdyn(ml/cm H2O) ([4]; 1 μg/kg dropped in the airway)	Raw (cm H2O/ml/s) ([4]; 1 μg/kg dropped in the airway)	inhibition ratio against the decrease of pulmonary dynamic compliance ([4]; 3 μg/kg dropped in the airway)	inhibition ratio against the increase of airway resistance ([4]; 3 μg/kg dropped in the airway)	Cdyn(ml/cm H2O) ([4]; 3 μg/kg dropped in the airway)	Raw (cm H2O/ml/s) ([4]; 3 μg/kg dropped in the airway)	inhibition ratio against the decrease of pulmonary dynamic compliance ([4]; 10 μg/kg dropped in the airway)	inhibition ratio against the increase of airway resistance ([4]; 10 μg/kg dropped in the airway)	Cdyn(ml/cm H2O) ([4]; 10 μg/kg dropped in the airway)	Raw (cm H2O/ml/s) ([4]; 10 μg/kg dropped in the airway)	IC50 [1, 6]	IC50 ([1]; 3 × 10^−6 mol/L of CCh, read-out: IC50 (μM), antagonism in vitro against the contraction of the tracheal smooth muscle induced by CCh)
OC(CO[C@H]1C[N+]2(CCCOc3ccccc3)CCC1CC2)(c1ccccc1)C1CCCC1.[Br-] (stereo partly drawn) [Example 1, (2R,3S)-3-[(2-cyclopentyl-2-hydroxyl-2-phenyl)ethoxyl]-1-(3-phenoxypropyl)-1-azabicyclo[2,2,2]octane bromide]	0.767 µM	6.89 min	more than 300 min	34.13	0.358	0.0105	–	–	–	–	–	–	–	–	–	–	–	–	–	–
OC(CO[C@@H]1C[N+]2(CCCOc3ccccc3)CCC1CC2)(c1ccccc1)C1CCCC1.[Br-] (stereo partly drawn) [Example 4, (2R,3R)-3-[(2-cyclopentyl-2-hydroxyl-2-phenyl)ethoxyl]-1-(3-phenoxypropyl)-1-azabicyclo[2,2,2]octane bromide]	0.0278 µM	6.37 min	more than 300 min	30.2	0.332	0.011	11.2%	64.2%	0.105 ± 0.012 ml/cm H2O	0.733 ± 0.088 cm H2O/ml/s	46.6%	86.1%	0.137 ± 0.015 ml/cm H2O	0.552 ± 0.060 cm H2O/ml/s	50.0%	90.8%	0.196 ± 0.017 ml/cm H2O	0.513 ± 0.071 cm H2O/ml/s	–	–
C[N+]1(C)CCC(OC(=O)C(c2ccccc2)c2ccccc2)CC1.[I-] [Example 4-DAMP, 4-DAMP, reference compound]	–	–	–	1.66	0.095	0.058	–	–	–	–	–	–	–	–	–	–	–	–	–	–
O[C@@](COC1C[N+]2(CCCOc3ccccc3)CCC1CC2)(c1ccccc1)C1CCCCC1.[Br-] (stereo partly drawn) [Example 10, (2R,3R)-3-[(2-cyclohexyl-2-hydroxyl-2-phenyl)ethoxyl]-1-(3-phenoxypropyl)-1-azabicyclo[2,2,2]octane bromide]	–	6.24 min	more than 300 min	–	–	–	10.9%	63.7%	0.098 ± 0.009 ml/cm H2O	0.745 ± 0.089 cm H2O/ml/s	45.9%	84.5%	0.135 ± 0.007 ml/cm H2O	0.563 ± 0.057 cm H2O/ml/s	49.8%	91.3%	0.189 ± 0.015 ml/cm H2O	0.531 ± 0.092 cm H2O/ml/s	0.0227 µM	–
OC(CO[C@@H]1C[N+]2(CCCOc3ccccc3)CCC1CC2)(c1ccccc1)C1CCC1.[Br-] (stereo partly drawn) [Example 16, (2R,3R)-3-[(2-cyclobutyl-2-hydroxyl-2-phenyl)ethoxyl]-1-(3-phenoxypropyl)-1-azabicyclo[2,2,2]octane bromide]	0.0573 µM	6.38 min	more than 300 min	13.5	0.67	0.037	–	–	–	–	–	–	–	–	–	–	–	–	–	–
O[C@@](CO[C@@H]1C[N+]2(CCOc3ccccc3)CCC1CC2)(c1ccccc1)C1CCCC1.[Br-] [Example 26, (2R,3R)-3-[(2-cyclopentyl-2-hydroxyl-2-phenyl)ethoxyl]-1-(2-phenoxyethyl)-1-azabicyclo[2,2,2]octane bromide]	–	6.14 min	more than 300 min	–	–	–	11.0%	64.4%	0.103 ± 0.014 ml/cm H2O	0.739 ± 0.085 cm H2O/ml/s	47.1%	87.2%	0.143 ± 0.016 ml/cm H2O	0.531 ± 0.063 cm H2O/ml/s	49.9%	92.1%	0.205 ± 0.018 ml/cm H2O	0.493 ± 0.083 cm H2O/ml/s	0.0235 µM	–
CC[N+](CC)(CC)CCOc1cccc(OCC[N+](CC)(CC)CC)c1OCC[N+](CC)(CC)CC [Gallamine, reference compound]	–	–	–	0.011	0.676	60.26	–	–	–	–	–	–	–	–	–	–	–	–	–	–
CN1CCN(CC(=O)N2c3ccccc3C(=O)Nc3cccnc32)CC1 [Pirenzepine, reference compound]	–	–	–	169.82	13.49	0.079	–	–	–	–	–	–	–	–	–	–	–	–	–	–
(2R,3S),(2S,3R)-3-[(2-cyclopentyl-2-hydroxyl-2-phenyl)ethoxyl]-1-(3-phenoxypropyl)-1-azabicyclo[2,2,2]octane bromide [Example 5]	–	7.01 min	more than 300 min	45.6	0.502	0.011	–	–	–	–	–	–	–	–	–	–	–	–	–	1.03 µM
